According to PubChem BioAssay (NCI):
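Following 48 hours of exposure in 96-well plates, responses at five concentrations were used to interpolate endpoints linearly. TGI: total growth inhibition.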

Tests used:
Test in all cases: NCI-60 cell line screen, 48 h
ACHN renal = system: ACHN renal
DU-145 prostate = system: DU-145 prostate
MDA-MB-231 breast = system: MDA-MB-231 breast
SNB-75 CNS = system: SNB-75 CNS
SK-MEL-28 melanoma = system: SK-MEL-28 melanoma
SK-MEL-5 melanoma = system: SK-MEL-5 melanoma
OVCAR-4 ovarian = system: OVCAR-4 ovarian
NCI/ADR-RES ovarian = system: NCI/ADR-RES ovarian
MDA-MB-435 = system: MDA-MB-435
NCI-H23 lung = system: NCI-H23 lung
BT-549 breast = system: BT-549 breast
SK-OV-3 ovarian = system: SK-OV-3 ovarian
HCT-15 colon = system: HCT-15 colon
COLO 205 colon = system: COLO 205 colon
OVCAR-5 ovarian = system: OVCAR-5 ovarian
A498 renal = system: A498 renal
HT29 colon = system: HT29 colon
TK-10 renal = system: TK-10 renal
SF-539 CNS = system: SF-539 CNS
UACC-62 melanoma = system: UACC-62 melanoma
A549 NSCLC = system: A549 NSCLC
UO-31 renal = system: UO-31 renal

SMILES: CCc1cn2c(/C=N/N=C(N)N)c(-c3cc(C)c(Cl)cc3Cl)nc2s1
- TGI (ACHN renal): 3.04 µM
- TGI (DU-145 prostate): 3 µM
- TGI (MDA-MB-231 breast): 2.12 µM
- TGI (SNB-75 CNS): 2.88 µM
- TGI (SK-MEL-28 melanoma): 2.82 µM
- TGI (SK-MEL-5 melanoma): 2.99 µM
- TGI (OVCAR-4 ovarian): 2.78 µM
- TGI (NCI/ADR-RES ovarian): 24.8 µM
- TGI (MDA-MB-435): 2.76 µM
- TGI (NCI-H23 lung): 3.16 µM
- TGI (BT-549 breast): 3.2 µM
- TGI (SK-OV-3 ovarian): 3.56 µM
- TGI (HCT-15 colon): 2.97 µM
- TGI (COLO 205 colon): 3.61 µM
- TGI (OVCAR-5 ovarian): 2.96 µM
- TGI (A498 renal): 3.75 µM
- TGI (HT29 colon): 2.45 µM
- TGI (TK-10 renal): 3.46 µM
- TGI (SF-539 CNS): 3.11 µM
- TGI (UACC-62 melanoma): 2.72 µM

SMILES: Cc1cn2c(/C=N/N=C(N)N)c(-c3cc([N+](=O)[O-])c(Cl)cc3Cl)nc2s1
- TGI (A549 NSCLC): > 100 µM
- TGI (NCI/ADR-RES ovarian): > 100 µM
- TGI (UO-31 renal): 3.74 µM
- TGI (COLO 205 colon): > 100 µM
